Assay results from patent publication US20100292165A1, “Treatment of an intestinal adenoma and/or adenocarcinoma by inhibition of notch pathway activation” (Hubrecht Laboratorium a corporation of the Netherlands, priority 2004, published 2010).
“Also recorded” adds a separate entry of the source.

Columns and labels:
γ-secretase = experiment: IC50 of γ-secretase inhibitors, assay not stated
Text: DAPT, DBZ or BZ are both effective in inducing the formation of a post-mitotic cell from an adenoma and/or adenocarcinoma cell and these compounds thus have a similar effect in a method according to the invention.

adenomas of APC^min mice = experiment: Oral DAPT treatment of APC^min mice, histology of intestinal adenomas; assay type: in vivo, mouse; details: DAPT 100 mg/kg orally once daily
Protocol: The intestinal tract was dissected as a whole and flushed gently with cold PBS to remove any fecal content followed by a flush with Formalin. The small intestine was rolled up into a compact circle and fixed in Formalin at room temperature for 16 hours. The tissues were sectioned (2 to 6 μm). Following dewaxing and hydration, sections were pretreated with peroxidase blocking buffer (120 mM Na2HPO4, 43 mM citric acid, 30 mM NaN3, 0.2% H2O2; pH 5.8) for 15 minutes at room temperature. Antigen retrieval was performed by boiling samples in Na-citrate buffer (10 mM, pH 6.0). After 20 minutes, the boiling pan was allowed to slowly cool down to room temperature. Incubation of antibodies was performed in BSA in PBS overnight at 4° C. and at room temperature for one hour for Lysozyme, Ki67. In all cases, the Envision^+ kit (DAKO) was used as a secondary reagent. The incubation time was 30 minutes. Stainings were developed using DAB. Slides were then counterstained with hematoxylin and mounted. The probes used for in situ hybridization are as described (Schroder et al. 2002). Following dewaxing and hydration, tissues were incubated for five minutes in Alcian Blue (1% in 0.5% acetic acid). Subsequently washed in water, one minute incubated in Neutral Red. Quickly dehydrated, washed in Xylene and mounted with Pertex. The eight-week-old APC^min mice were treated with two different, orally deliverable γ-secretase inhibitors (DAPT: 100 mg/kg in corn oil) for 2.5, 6.5 or 15 days, after which their intestines were isolated and examined histologically. We then asked whether Notch pathway activity was essential for the maintenance of the undifferentiated, proliferative phenotype of adenoma cells. We elected to inhibit the Notch pathway pharmacologically through the use of the γ-secretase inhibitor DAPT. We then initiated treatment of fifteen-week-old APC^min mice that at this age carry 30 to 60 macroscopically detectable adenomas or polyps in the small intestine and one to three adenomas in the colon. The mice were treated with DAPT for up to 15 days, after which their intestines were examined histologically. Based on a pilot experiment and published treatment regimens, the APC^min mice were orally dosed once daily with DAPT at 100 mg/kg in maize oil.

CC(NC(=O)Cc1cc(F)cc(F)c1)C(=O)NC(C(=O)OC(C)(C)C)c1ccccc1 [DAPT, N—[N-(3,5-difluorophenylacetyl)-L-alanyl]-S-phenylglycine t-butyl ester]
IC50 (γ-secretase): 0.01 µM
effects in adenomas (adenomas of APC^min mice; day 2.5 or day 6.5 of treatment): No consistent effects
Alcian Blue-positive goblet cells in adenomas (adenomas of APC^min mice; day 15): increase in goblet cells; also recorded: Large foci of Alcian Blue-positive goblet cells had appeared
proliferation in adjacent, normal crypts (adenomas of APC^min mice; day 15): unaffected
numbers of proliferating, Ki67-positive cells in adenomas (adenomas of APC^min mice; day 15, colon and small intestinal adenomas): strongly diminished; also recorded: dramatically decreased; also recorded: halted
